Data published in US6001880A, “Alkylenediamine derivative, anti-ulcer drug, and antibacterial drug” (Shiseido Co., Ltd., priority 1997, dated 1999).

tested on: not listed separately; assay: MTT: Cell Damaging and Protecting Effect Test; type: cell-based, rabbit (male Japanese White); details: rabbit, gastric corpus mucosa cells, final concentration 10^-4 M, smaller value is better, read-out: MTT: cell damaging rate
Method in brief: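 Primary gastric corpus mucosal cells from male Japanese White rabbit, enzymatically dispersed and cultured 3 days to confluence. Compound at final 10^-4 M added with MTT for 4 h at 37 °C; formazan read at OD 570–630. Cell damaging rate (%) calculated against control absorbance.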

Compared with CCN(CC)CCNC(=O)c1cc(OC)c(OC/C=C(\C)CCC=C(C)C)c(OC)c1 [Example 37], CCN(CC)CCNC(=O)c1cc(OC)c(OC/C=C(/C)CCC=C(C)C)c(OC)c1 [Example 38] is lower in cytotoxicity at 4 h, 100 µM: 39% for the first, 30% for the second.

Going from COc1cc(C(=O)NCCN(C)C)cc(OC/C=C(\C)CCC=C(C)C)c1OC [Example 42] to CCN(CC)CCNC(=O)c1cc(OCC=C(C)C)cc(OCC=C(C)C)c1 [Example 14], the cytotoxicity at 4 h, 100 µM rises from 17% to 43%.

First: CCN(CC=C(C)C)c1ccc(C(=O)NCCN(C(C)C)C(C)C)cc1 [Example 28]
Second: CC(C)=CCC/C(C)=C/COc1ccc(OC/C=C(\C)CCC=C(C)C)c(C(=O)NCCN(C(C)C)C(C)C)c1 [Example 17]
The cytotoxicity at 4 h, 100 µM of the first is lower: 16% for the first, 27% for the second.

With CCN(CC)CCNC(=O)c1cc(OC/C=C(\C)CCC=C(C)C)ccc1OC/C=C(\C)CCC=C(C)C [Example 16] the cytotoxicity at 4 h, 100 µM was 40%.

tested on: mice; assay: not given; parameters: species or system mouse (male Slc:ICR); details: mouse, in vivo
Protocol: AT: Single Dose Toxicity Pretest
Male Slc:ICR mice (5-week-old) were used. Each group has 3 to 5 mice and each mouse was fasted, but allowed free access to water, for 4 to 5 hours from 9 a.m. in the test day. Then, 2,000 mg/10 ml/kg of the sample compound dissolved or suspended in an aqueous solution of 0.5% sodium carboxymethyl cellulose was orally administered thereto. To a control, only the vehicle was administered. […] The body weight was measured before and after the fasting as well as at the same time everyday. The dead animals were immediately subjected to autopsy and their organs were observed by naked eyes. Also, the living animals were sacrificed with ether or carbon dioxide one week after the administration and then their organs were observed by naked eyes.
The toxicity at the single dose of 2,000 mg/kg of the sample compound was expressed as being classified into 5 levels.
5: mortality rate is 0%; no toxicity is found at all both in behavior and organs.
4: Mortality rate is 0%; while no toxicity is found in organs, slight toxicity is observed in behavior or body weight increase.
3: While there is a dead animal (though not all the animals are dead), no toxicity is found in organs.
2: Regardless of whether there is a dead animal or not, toxicity is found in organs.
1: All the animals are dead.

Compared with CCN(CC)CCNC(=O)c1cc(OC)c(OC/C=C(\C)CCC=C(C)C)c(OC)c1 [Example 37], CCN(CC)CCNC(=O)c1cc(OC)c(OC/C=C(/C)CCC=C(C)C)c(OC)c1 [Example 38] is higher in “AT: single dose toxicity level” value: 4 for the first, 5 for the second.

Going from COc1cc(C(=O)NCCN(C)C)cc(OC/C=C(\C)CCC=C(C)C)c1OC [Example 42] to CCN(CC)CCNC(=O)c1cc(OCC=C(C)C)cc(OCC=C(C)C)c1 [Example 14], the “AT: single dose toxicity level” value rises from 3 to 5.

CCN(CC)CCNC(=O)c1cc(OC/C=C(\C)CCC=C(C)C)ccc1OC/C=C(\C)CCC=C(C)C [Example 16] and CC(C)=CCC/C(C)=C/COc1ccc(OC/C=C(\C)CCC=C(C)C)c(C(=O)NCCN(C(C)C)C(C)C)c1 [Example 17] are the same in “AT: single dose toxicity level” value: 5 for the first, 5 for the second.

tested on: stress ulcer formation in rats; assay: WIS: Restraint and Water Immersion Stress-Induced Ulcer Inhibition Test; type: in vivo, rat (male Crj:SD or Slc:SD); details: 100 mg/kg oral, 10 minutes before 7 h restraint and water immersion (21° C.)
Method in brief: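 Overnight-fasted male SD rats (6–7 weeks, n=5–8) dosed orally at 100 mg/kg in 0.3% CMC-Na or 0.05% Tween 80; 10 min later restrained and immersed to xiphoid in 21° C water for 7 h. Ulcer index is summed glandular erosion length; inhibition % = (1 − UI sample/UI control).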

Compared with CCN(CC)CCNC(=O)c1cc(OC)c(OC/C=C(\C)CCC=C(C)C)c(OC)c1 [Example 37], CCN(CC)CCNC(=O)c1cc(OC)c(OC/C=C(/C)CCC=C(C)C)c(OC)c1 [Example 38] is higher in “WIS: ulcer formation inhibitory rate” value: 69% for the first, 86% for the second.

Going from COc1cc(C(=O)NCCN(C)C)cc(OC/C=C(\C)CCC=C(C)C)c1OC [Example 42] to CCN(CC)CCNC(=O)c1cc(OCC=C(C)C)cc(OCC=C(C)C)c1 [Example 14], the “WIS: ulcer formation inhibitory rate” value rises from 81% to 86%.

Compared with CCN(CC=C(C)C)c1ccc(C(=O)NCCN(C(C)C)C(C)C)cc1 [Example 28], CC(C)=CCC/C(C)=C/COc1ccc(OC/C=C(\C)CCC=C(C)C)c(C(=O)NCCN(C(C)C)C(C)C)c1 [Example 17] is lower in “WIS: ulcer formation inhibitory rate” value: 87% for the first, 62% for the second.

With CCN(CC)CCNC(=O)c1cc(OC/C=C(\C)CCC=C(C)C)ccc1OC/C=C(\C)CCC=C(C)C [Example 16] the “WIS: ulcer formation inhibitory rate” value was 82%.
